Columns and labels:
Assay type in all cases: in vivo
[1] = system: redroot pigweed (Amaranthus retroflexus, AMARE); test: Pre-emerge test, greenhouse herbicide activity screening; settings: rating scale 0-100, 14 days after application
In short: (§1)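 Rating: 0–100 visual injury, 14 DAA. Application: acetone, 187 l/ha, 15–1000 g ai/ha, flat-fan track sprayer with nozzle 40–45 cm above soil or canopy. Post-emerge runs used 0.25% v/v surfactant on 2–3 leaf plants.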

[2] = system: field corn (Zea mays L., var. Dekalb 535, CORN); test: Pre-emerge test, crop safety; settings: rating scale 0-100, 14 days after application
In short: as §1

[3] = system: upland rice (Oryza sp., var. Tebonnet, RICE); test: Pre-emerge test, crop safety; settings: rating scale 0-100, 14 days after application
In short: as §1

[4] = system: field corn (Zea mays L., var. Dekalb 535, CORN); test: Post-emerge test, crop safety; settings: rating scale 0-100 (0 no damage, 100 complete death), 14 days after application
In short: (§2)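 Each test used a mechanized track sprayer delivering 187 l/ha of acetone solution at 15–1000 g ai/ha. Post-emerge foliage at 2–3 leaves was treated with added 0.25% v/v non-ionic surfactant and bottom-watered only. Injury was assessed on day 14, where 100 means total kill.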

[5] = system: upland rice (Oryza sp., var. Tebonnet, RICE); test: Post-emerge test, crop safety; settings: rating scale 0-100 (0 no damage, 100 complete death), 14 days after application
In short: as §2

[6] = system: velvetleaf (Abutilon theophrasti, ABUTH); test: Post-emerge test, greenhouse herbicide activity screening; settings: rating scale 0-100 (0 no damage, 100 complete death), 14 days after application
In short: (§3)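 Sandy loam pots; pre-emerge: sown 1 d pre-spray, surface-watered after, then bottom-watered. Post-emerge: sown 8–21 d before, 2–3 leaf stage, + 0.25% v/v NIS, bottom-watered. Acetone, 187 l/ha track spray, 15–1000 g ai/ha. 0–100 injury score, day 14.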

[7] = system: large crabgrass (Digitaria sanguinalis, DIGSA); test: as above; settings: rating scale 0-100 (0 no damage, 100 complete death), 14 days after application
In short: as §3

[8] = system: common ragweed (Ambrosia artemisizfolia L., AMBEL); test: as above; settings: rating scale 0-100 (0 no damage, 100 complete death), 14 days after application
In short: as §3

[9] = system: barnyardgrass (Echinochloa crus-galli, ECHCG); test: as above; settings: rating scale 0-100 (0 no damage, 100 complete death), 14 days after application
In short: as §3

[10] = system: sicklepod (Cassia obtusifolia, CASOB); test: as above; settings: rating scale 0-100 (0 no damage, 100 complete death), 14 days after application
In short: as §3

[11] = system: redroot pigweed (Amaranthus retroflexus, AMARE); test: as above; settings: rating scale 0-100 (0 no damage, 100 complete death), 14 days after application
In short: as §3

[12] = system: ivyleaf morningglory (Ipomoea hederacea, IPOHE); test: as above; settings: rating scale 0-100 (0 no damage, 100 complete death), 14 days after application
In short: as §3

[13] = system: lambsquarters (Chenopodium album, CHEAL); test: as above; settings: rating scale 0-100 (0 no damage, 100 complete death), 14 days after application
In short: as §3

[14] = system: green foxtail (Setaria viridis, SETVI); test: as above; settings: rating scale 0-100 (0 no damage, 100 complete death), 14 days after application
In short: as §3

[15] = system: velvetleaf (Abutilon theophrasti, ABUTH); test: Pre-emerge test, greenhouse herbicide activity screening; settings: rating scale 0-100, 14 days after application
In short: (§4)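 Plants grown in 10 cm pots of sandy loam mix received acetone-dissolved compounds through a moving flat-fan nozzle. Doses ranged from 15 to 1000 g ai/ha. Pre-emerge pots were seeded one day earlier, post-emerge pots 8–21 days earlier. Fourteen days on, each pot was graded 0–100 for damage.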

[16] = system: large crabgrass (Digitaria sanguinalis, DIGSA); test: as above; settings: rating scale 0-100, 14 days after application
In short: as §4

[17] = system: johnsongrass (Sorghum halepense, SORHA); test: as above; settings: rating scale 0-100, 14 days after application
In short: as §4

[18] = system: common ragweed (Ambrosia artemisizfolia L., AMBEL); test: as above; settings: rating scale 0-100, 14 days after application
In short: as §4

[19] = system: barnyardgrass (Echinochloa crus-galli, ECHCG); test: as above; settings: rating scale 0-100, 14 days after application
In short: as §4

[20] = system: sicklepod (Cassia obtusifolia, CASOB); test: as above; settings: rating scale 0-100, 14 days after application
In short: as §4

[21] = system: ivyleaf morningglory (Ipomoea hederacea, IPOHE); test: as above; settings: rating scale 0-100, 14 days after application
In short: as §4

[22] = system: lambsquarters (Chenopodium album, CHEAL); test: as above; settings: rating scale 0-100, 14 days after application
In short: as §4

[23] = system: green foxtail (Setaria viridis, SETVI); test: as above; settings: rating scale 0-100, 14 days after application
In short: as §4

## CCCCOC(=O)C(Cl)Cc1c(OC)c(Cl)cc(F)c1-n1c(=O)cc(C(F)(F)F)n(C)c1=O (single isomer, unassigned) [14-8]
[1]; 63 g ai/ha
  Pre-emerge herbicidal activity, phytotoxicity rating AMARE: 100
[1]; 250 g ai/ha
  Pre-emerge herbicidal activity, phytotoxicity rating AMARE: 99
[2]; 63 g ai/ha
  Pre-emerge phytotoxicity rating, crop damage CORN: 0
[2]; 250 g ai/ha
  Pre-emerge phytotoxicity rating, crop damage CORN: 0
[3]; 63 g ai/ha
  Pre-emerge phytotoxicity rating, crop damage RICE: 0
[3]; 250 g ai/ha
  Pre-emerge phytotoxicity rating, crop damage RICE: 0
[4]; Rate 63 g ai/ha
  Post-emerge phytotoxicity rating CORN (crop damage): 40
[4]; Rate 250 g ai/ha
  Post-emerge phytotoxicity rating CORN (crop damage): 80
[5]; Rate 63 g ai/ha
  Post-emerge phytotoxicity rating RICE (crop damage): 5
[5]; Rate 250 g ai/ha
  Post-emerge phytotoxicity rating RICE (crop damage): 30
[6]; Rate 63 g ai/ha
  Post-emerge Herbicidal Activity, phytotoxicity rating ABUTH: 60
[6]; Rate 250 g ai/ha
  Post-emerge Herbicidal Activity, phytotoxicity rating ABUTH: 100
[7]; Rate 63 g ai/ha
  Post-emerge Herbicidal Activity, phytotoxicity rating DIGSA: 40
[7]; Rate 250 g ai/ha
  Post-emerge Herbicidal Activity, phytotoxicity rating DIGSA: 85
[8]; Rate 63 g ai/ha
  Post-emerge Herbicidal Activity, phytotoxicity rating AMBEL: 10
[8]; Rate 250 g ai/ha
  Post-emerge Herbicidal Activity, phytotoxicity rating AMBEL: 50
[9]; Rate 63 g ai/ha
  Post-emerge Herbicidal Activity, phytotoxicity rating ECHCG: 95
[9]; Rate 250 g ai/ha
  Post-emerge Herbicidal Activity, phytotoxicity rating ECHCG: 99
[10]; Rate 63 g ai/ha
  Post-emerge Herbicidal Activity, phytotoxicity rating CASOB: 30
[10]; Rate 250 g ai/ha
  Post-emerge Herbicidal Activity, phytotoxicity rating CASOB: 80
[11]; Rate 63 g ai/ha
  Post-emerge Herbicidal Activity, phytotoxicity rating AMARE: 90
[11]; Rate 250 g ai/ha
  Post-emerge Herbicidal Activity, phytotoxicity rating AMARE: 100
[12]; Rate 63 g ai/ha
  Post-emerge Herbicidal Activity, phytotoxicity rating IPOHE: 30
[12]; Rate 250 g ai/ha
  Post-emerge Herbicidal Activity, phytotoxicity rating IPOHE: 95
[13]; Rate 63 g ai/ha
  Post-emerge Herbicidal Activity, phytotoxicity rating CHEAL: 70
[13]; Rate 250 g ai/ha
  Post-emerge Herbicidal Activity, phytotoxicity rating CHEAL: 99
[14]; Rate 63 g ai/ha
  Post-emerge Herbicidal Activity, phytotoxicity rating SETVI: 10
[14]; Rate 250 g ai/ha
  Post-emerge Herbicidal Activity, phytotoxicity rating SETVI: 40
[15]; 63 g ai/ha
  Pre-emerge herbicidal activity, phytotoxicity rating ABUTH: 0
[15]; 250 g ai/ha
  Pre-emerge herbicidal activity, phytotoxicity rating ABUTH: 40
[16]; 63 g ai/ha
  Pre-emerge herbicidal activity, phytotoxicity rating DIGSA: 40
[16]; 250 g ai/ha
  Pre-emerge herbicidal activity, phytotoxicity rating DIGSA: 100
[17]; 63 g ai/ha
  Pre-emerge herbicidal activity, phytotoxicity rating SORHA: 0
[17]; 250 g ai/ha
  Pre-emerge herbicidal activity, phytotoxicity rating SORHA: 0
[18]; 63 g ai/ha
  Pre-emerge herbicidal activity, phytotoxicity rating AMBEL: 0
[18]; 250 g ai/ha
  Pre-emerge herbicidal activity, phytotoxicity rating AMBEL: 40
[19]; 63 g ai/ha
  Pre-emerge herbicidal activity, phytotoxicity rating ECHCG: 0
[19]; 250 g ai/ha
  Pre-emerge herbicidal activity, phytotoxicity rating ECHCG: 20
[20]; 63 g ai/ha
  Pre-emerge herbicidal activity, phytotoxicity rating CASOB: 0
[20]; 250 g ai/ha
  Pre-emerge herbicidal activity, phytotoxicity rating CASOB: 0
[21]; 63 g ai/ha
  Pre-emerge herbicidal activity, phytotoxicity rating IPOHE: 0
[21]; 250 g ai/ha
  Pre-emerge herbicidal activity, phytotoxicity rating IPOHE: 0
[22]; 63 g ai/ha
  Pre-emerge herbicidal activity, phytotoxicity rating CHEAL: 70
[22]; 250 g ai/ha
  Pre-emerge herbicidal activity, phytotoxicity rating CHEAL: 95
[23]; 63 g ai/ha
  Pre-emerge herbicidal activity, phytotoxicity rating SETVI: 0
[23]; 250 g ai/ha
  Pre-emerge herbicidal activity, phytotoxicity rating SETVI: 0

Source: patent US6355799B1, “Substituted benzene compounds, process for their preparation, and herbicidal and defoliant compositions containing them” (ISK Americas Incorporated, priority 1997, dated 2002)
